Structures are written as SMILES. “And” between values parts separate entries of the source, which are not always exact repeats. Equal entries are not always repeated. Where two headings read alike, the source gives them in different places.

The nature of data set [1]: DPPH radical scavenging assay. Conditions: positive control at 10 μg/mL. How it is done:
DPPH radical scavenging capacity of the extracts and phytocompounds at 1 mg/mL was measured with slight modification. The absorbance was monitored at 515 nm (Multimode reader, Synergy-H1 BioTek, Agilent, Santa Clara, CA, USA) using ascorbic acid (0.1–10 μg/mL) as a standard. Radical scavenging activity (RSA) was calculated as:% RSA = (Ab − Ae/Ab) × 100 where Ab = absorbance of the blank and Ae = absorbance of the extract.
(Loss of DPPH colour is used to gauge radical scavenging.)

Data set [2] has as its system SH-SY5Y cell lysate. The experiment in a line: Glutathione (GSH, GSSG) in cell lysate. Particulars: 10 μg/mL; 24 h pre-treatment, 6 h H2O2 100 μM. The class given is cell-based, Human. How it is done: (§1) Human neuroblastoma SH-SY5Y cells (ATCC CRL-2266, Manassas, VA, USA) were maintained in Dulbecco’s modified Eagle’s medium (DMEM, Gibco) supplemented with 10% fetal bovine serum (FBS), 1% kanamycin, and 1% penicillin (Thermo Fisher Scientific, Waltham, MA, USA) at 37 °C with 5% CO2, and a 95% humidified atmosphere in the incubator. The experiments were executed at 80–90% cell confluency.
(§2) The cells (5 × 10^4 cells/well) were seeded in a 6-well sterile plate and incubated for 18–24 h. After stabilization, cells were pre-treated with the extracts and phytocompounds for 24 h before 6 h incubation with H2O2 (100 μM). The culture media was removed, and the cells were washed with cold PBS (1X). The cells were placed on ice and incubated with pre-chilled RIPA buffer for 10 min. Transfer the lysate in microfuge tubes and centrifuge (Labogene 1730R, BMS, Paju-si, Republic of Korea) for 10 min at 20,000× g, 4 °C. The supernatant was collected and stored at −80 °C.
The concentrations of GSH (reduced) and GSSG (oxidized) in the lysate were measured fluorometrically using a previously described and the fluorescence was recorded at 350/420 (Ex/Ems) in a microplate reader (Synergy-H1 BioTek, Agilent, Santa Clara, CA, USA).

For data set [3], the system named is AChE. Conditions: cited from earlier work.
Data set [4] relates to H2O2-induced ROS production in SH-SY5Y cells. The experiment in a line: Intracellular ROS measurement (H2DCFDA). The class given is cell-based, Human. Conditions: 12 h pre-treatment, H2O2 100 µM 2 h, H2O2 alone 156.96 ± 5.07%. How it is done: as §1
The cells (1 × 10^4 cells/well) were seeded in a 96-well sterile plate, after which they were pre-treated with the extract for 12 h. […] The fluorescence intensity (Ex 495 nm, Ems 520 nm) was measured by a microplate reader (Synergy-H1 BioTek, Agilent, USA). The ROS was calculated as a percentage of the untreated control cells (100%) in triplicate measurements.

The test system of data set [5] is H2O2-induced neuroblastoma SH-SY5Y cells. The experiment in a line: Neuroprotection assay against H2O2-induced oxidative stress (WST-8). The class given is cell-based, Human. The method, then:
as §1
The neuroprotective effect of extracts and phytocompounds on H2O2-induced oxidative stress in SH-SY5Y by a previously described method. The cells (1 × 10^4 cells/well) were seeded in a 96-well sterile plate. After stabilization, the cells were pre-treated with the extracts and phytocompounds for 24 h. The extracts and phytocompounds were removed and treated with H2O2 (100 μM) for 6 h. A solvent control, H2O2 alone, and extract alone treatments were also included. After incubation, the % cell viability was measured using WST-8 reagent in triplicate experiments.
A general note: Tetrazolium dyes change colour on reduction, which living cells bring about.

The target in data set [6] is T1, Aβ1–42 (Homo sapiens, UniProt P05067).
T1 construct: Aβ1–42 for MDS (GenicBio Inc., Shanghai, China); purchased GenicBio Inc
T1 sequence (P05067 672-713): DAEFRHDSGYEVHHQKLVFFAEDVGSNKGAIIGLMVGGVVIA
Nature of the data set: Anti-Aβ1–42 oligomerization, multimeric detection system (MDS). The class given is biochemical. Conditions: for Aβ oligomerization reduction (relative amount of Aβ oligomers): vs negative control (Buffer + Aβ). How it is done: The anti-Aβ1–42 oligomerization and fibrilization activity of the extracts/bioactives were measured by Multiple Detection System (MDS) and ThT assay, respectively. Briefly, the extracts and phytocompounds were incubated with Aβ1–42 at RT for different time points (0 h, 2 h, and 4 h). The samples were incubated on an anti-β-amyloid pre-coated plate for 1 h at RT. An HRP-conjugated W0–2 monoclonal antibody was added, and the plate was kept at RT for 30 min. Later, TMB was added, and the plate was incubated for 15 min at RT. The absorbance was read at 450 nm using a microplate reader (Victor3, PerkinElmer, Shelton, CT, USA)

Data set [7] has as its target T2, Acetylcholinesterase (Electrophorus electricus, Type VI-S) (Electrophorus electricus, UniProt O42275).
T2 construct: purchased Sigma-Aldrich
The experiment in a line: biochemical. Particulars: for IC50: read-out: AChE IC50 (converted); for Type of Inhibition of AChE: Lineweaver–Burk plot, 100 and 200 μg/mL; for Vmax of AChE in presence of inhibitor: no inhibitor 2.975.
Experimental: The AChE activity was examined by slight modifications [23] in Ellman’s method [76]. The extracts and phytocompounds were incubated for 15 min with AChE and 10 mM ATCC at 37 °C. The reaction was stopped by DTNB (15 mM), and the absorbance was measured at 412 nm (Multi-mode plate reader, Synergy-H1 BioTek, Agilent, USA). […] The percent inhibition was calculated as:Percent Inhibition (I%) = [(Ao − Ac) − (Bi − Bc)]/(Ao − Ac) × 100 where Ao is the absorbance without inhibitor; Ac is the negative control without inhibitor; Bi is the absorbance with inhibitor; and Bc is the negative control with inhibitor. The IC50 values were calculated using GraphPad Prism 10. Lineweaver–Burk plot was used to prepare the inhibition curves (with and without extract/phytocompound) using GraphPad Prism 10. The kinetic parameters were calculated from a non-linear fit (Michaelis–Menten equation) in GraphPad Prism 10.
Statistical analysis was established by a one-way ANOVA followed by Dunnett’s post hoc test. Data are registered as the mean ± SEM of three sets of experiments. […] The IC50 values were determined using non-linear regression. The Vmax and Km were calculated from a Michaelis–Menten plot drawn using a non-linear plot (GraphPad Prism 10). Lineweaver–Burk plots were drawn using linear regression analysis (GraphPad Prism 10). The Ki values were calculated from the formula IC50 = Ki (1 + [S]/Km).

Data set [8] deals with T1, Aβ1–42. Nature of the data set: Anti-Aβ1–42 fibrilization, ThT assay. The class given is biochemical. Particulars: for Aβ fibrilization inhibition (ThT): samples 500 μg/mL, 37 °C 24 h. The method, then: The anti-Aβ1–42 fibrilization activity of the extracts/bioactives was monitored using a ThT assay. The samples were incubated in the presence/absence of Aβ1–42 at 37 °C for 24 h. The samples were incubated with 100 μM ThT at 37 °C for 15 min. The fluorescence was monitored at Ex 450 nm/Ems 490 nm (Synergy-H1 BioTek, Agilent, Santa Clara, CA, USA). For the control, phenol red (50 μM) was used. The Aβ1–42 aggregation inhibition was calculated as follows:Percent Inhibition (%) = [(1 − Fi/Fc) × 100] where Fi and Fc are the fluorescence intensity with and without the inhibitors, respectively.

For data set [9], the system named is SH-SY5Y neuroblastoma cell line. Nature of the data set: Cell viability / cytotoxicity assay (WST-8). The class given is cell-based, Human. Conditions: 24 h treatment; 1, 10, 30 µg/mL. The method, then: as §1
The cells were seeded (1 × 10^4 cells/well) in 96-well sterile plates and pre-treated with various extract concentrations (1, 10, 30 µg/mL) for 24 h. The extracts and phytocompounds were removed and incubated for 2 h with 10% WST-8 reagent (Roche, Grenzach-Wyhlen, Germany) as described previously. The absorbance was determined at 450 nm in a multi-plate reader (Synergy-H1 BioTek, Agilent, USA). The percent cytotoxicity was calculated as:Cytotoxicity % = (Ac − At)/(Ac) × 100 where Ac = absorbance of the control cells, At = absorbance of the treated cells.
The plot of percent cytotoxicity versus sample concentration was used to calculate the extract concentration that killed 50% of the cells (IC50).

A short description of data set [10]: Ferric reducing antioxidant potential (FRAP) assay. Conditions: 1 mg/mL. The method, then:
FRAP assay was used to assess the […] of the extracts and phytocompounds with slight modification in a previously reported method. For the assay, the extract (1 mg/mL) was incubated with 200 μL of FRAP reagent, and the reduction of ferric tripyridyltriazine was monitored at 593 nm (Multimode reader, Synergy-H1 BioTek, Agilent, USA). Ascorbic acid (2 μg/mL) was used as a positive control. FRAP values of the extracts and phytocompounds were calculated from the standard curve of FeSO4 (15–250 μM) and expressed as μM Fe^2+/g.

Data set [11] concerns SH-SY5Y cells lysate. Nature of the data set: Malondialdehyde (MDA) in cell lysate (TBA:TCA). The class given is cell-based, Human. Conditions: 24 h pre-treatment, 6 h H2O2 100 μM. How it is done:
as §1, §2
MDA levels were measured using TBA: TCA reagent as described previously. In the reaction, MDA reacts with two molecules of thiobarbituric acid (TBA) to give a pink pigment that absorbs at 532 nm. The standard curve of MDA (1–100 μM) was used to calculate lipid peroxidation in the lysate.

The test system of data set [12] is SH-SY5Y cells. The experiment in a line: Mitochondrial membrane potential (ΔΨm) assay (TMRE). The class given is cell-based, Human. Conditions: 12 h pre-treatment, 200 μM H2O2 2 h. The method, then: as §1
The mitochondrial membrane potential was measured using the tetramethylrhodamine, methyl ester (TMRE) staining method. The cells (1 × 10^4 cells/well) were seeded in a 96-well sterile plate; after which, they were pre-treated with the extract for 12 h. The extracts and phytocompounds were removed, followed by a 2 h treatment with H2O2 (200 μM). A 1 μM amount of TMRE was added to the cells and incubated for 1 h at 37 °C. The fluorescence was assessed (Ex 549 nm, Ems 575 nm) using a microplate reader (Synergy-H1 BioTek, Agilent, USA). The ΔΨm was calculated as a percentage of the untreated control cells (100%) in triplicate measurements.

The conditions of data set [13]: cited from earlier work.
Data set [14] in a line: ABTS radical scavenging assay. Conditions: positive control at 10 μg/mL.
[15] abbreviates: mean of three experiments ± SEM.

T2 sequence (O42275 24-633): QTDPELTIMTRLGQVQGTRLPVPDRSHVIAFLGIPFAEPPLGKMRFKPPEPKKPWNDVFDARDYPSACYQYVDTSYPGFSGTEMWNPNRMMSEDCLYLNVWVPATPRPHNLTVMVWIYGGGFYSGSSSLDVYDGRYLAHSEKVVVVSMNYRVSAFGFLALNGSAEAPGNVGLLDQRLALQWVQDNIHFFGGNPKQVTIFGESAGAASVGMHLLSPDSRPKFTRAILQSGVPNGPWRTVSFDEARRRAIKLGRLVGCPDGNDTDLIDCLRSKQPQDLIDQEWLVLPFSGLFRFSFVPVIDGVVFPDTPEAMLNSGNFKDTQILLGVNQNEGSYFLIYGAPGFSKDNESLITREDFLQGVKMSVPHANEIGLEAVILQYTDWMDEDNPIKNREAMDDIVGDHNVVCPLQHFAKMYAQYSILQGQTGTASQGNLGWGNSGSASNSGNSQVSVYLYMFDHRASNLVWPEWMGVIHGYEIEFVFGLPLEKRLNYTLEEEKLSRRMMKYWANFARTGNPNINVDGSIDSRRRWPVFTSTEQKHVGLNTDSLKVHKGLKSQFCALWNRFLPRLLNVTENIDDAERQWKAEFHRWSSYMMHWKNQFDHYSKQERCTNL

As to `O=C1O[C@H]([C@@H](O)CO)C(O)=C1O` [Ascorbic acid, ascorbic acid], the “DPPH percent radical scavenging activity” value in data set [1] is reported as 85.43 ± 1.02%.
As usually defined, the IC50 is the concentration at which inhibition is half-maximal. Consider `C=C(C)[C@H]1CC[C@H](C)C(=O)C1` [DHC, cyclohexanone,2-methyl-5-(1-methylethenyl)-], for which the GSSG levels entry in data set [2] is given as “substantial reduction”. Moreover, the AChE inhibition in data set [3] (at 1 mg/mL) was 31.1%. For the same compound, the entries for the “ROS level (% of untreated cells)” value in data set [4] (10 µg/mL) and in [4] (30 µg/mL) were 107.37 ± 8.26% and 96.73 ± 9.11%, respectively. The “cell viability change vs H2O2 control” value in [5] (all concentrations (0.1–30 µg/mL)) is “non-significantly increased”. Besides, in [6] (2 h incubation), the “Aβ oligomerization reduction (relative amount of Aβ oligomers)” value was “non-significant”. Further, the “percent Aβ oligomerization inhibition” value in [6] (MDS, Figure 3B, mean ± SEM n = 3) was determined as 26.62 ± 8.62%. Moreover, the IC50 in data set [7] (setting [15]) is > 7.87 mM and 7.87 mM; in data set [7] (stated as bound) it was more than 6.57 mM. In data set [8], the “Aβ fibrilization inhibition (ThT)” value was 26.6% and 33.44 ± 3.43%. Besides, the “Cytotoxicity (cell viability) in SH-SY5Y” value in data set [9] is listed as “No significant difference”. Also, in data set [10], the FRAP value worked out at 45.22 ± 0.72 µM Fe^2+/g. Moreover, the MDA level amounted to 1.79 µM in data set [11] (0.1 µg/mL), 1.60 µM in [11] (1 µg/mL) and 1.45 µM in [11] (10 μg/mL). Further, the “MMP (% ΔΨm vs untreated cells)” value in [12] (0.1 µg/mL) stood at 74.94 ± 1.20%; in data set [12] (1 µg/mL), 79.26 ± 0.56%; in data set [12] (10 µg/mL), 85.21 ± 0.19%; in [12] (30 µg/mL), 86.91 ± 5.47%.
One may read the Ki as the equilibrium dissociation constant of an inhibitor or competing ligand from its target. Read a low Ki as a stronger hold on the target. Regarding `C=CCc1cc(OC)c2c(c1OC)OCO2` [apiole], the BBB permeability result in data set [13] is reported as “lacks significant BBB permeability”. Further, the “ROS level (% of untreated cells)” value in [4] (10 µg/mL) came to 113.63 ± 6.25%; in data set [4] (30 µg/mL), 102.92 ± 9.11%. The “% cell viability, H2O2-induced SH-SY5Y” value in data set [5] (1–30 µg/mL, 12 h pre-treatment, 1 h H2O2 100 µM) is on record as ~ 75%. Further, the “Aβ oligomerization reduction (relative amount of Aβ oligomers)” value in [6] (2 h incubation) and in data set [6] (4 h incubation) was “statistically significant” each time. Further, the inhibition constant (Ki) was 1.72 mM in [7] (Ki); 1.72 mM and 1.71 mM in data set [7] (Ki (inhibitor constant), AChE). Further, the “Type of Inhibition of AChE” value in data set [7] is recorded as “competitive inhibition”; in data set [7] (listed as Apiole) it was “Competitive”. Further, the “Vmax of AChE in presence of inhibitor” value in data set [7] (inhibitor 100 μg/mL) amounted to 3.551 µmol/min/mg; in [7] (inhibitor 200 μg/mL) it was 3.712 µmol/min/mg. Further, the IC50 was 1.75 mM in [7] (setting [15]) and 1.74 mM in data set [7] (molar equivalent of the μg/mL value). For the same compound, the “Aβ fibrilization inhibition (ThT)” value in data set [8] stood at 41.85 ± 1.73%. The “Cytotoxicity (cell viability) in SH-SY5Y” value in data set [9] is listed as “No significant difference”. Also, in data set [10], the FRAP value turned out to be 42.41 ± 3.54 µM Fe^2+/g. For the same compound, the MDA level in data set [11] (0.1 µg/mL) is listed as 1.94 µM; in [11] (1 and 10 µg/mL), ~ 1.38 µM. Moreover, the “MMP (% ΔΨm vs untreated cells)” value is 71.53 ± 0.37% in data set [12] (0.1 µg/mL) and 75 to 77% in data set [12] (1–30 µg/mL).
As to `COc1ccc2c3c1O[C@H]1C[C@@H](O)C=C[C@@]31CCN(C)C2` [galantamine, reference compound], the “AChE IC50” value in [3] (previously reported value, no reference given) was 4.31 µg/mL.
As a reminder, the inhibition is the percentage by which the read-out fell short of the control. With `O=S1(=O)OC(c2ccc(O)cc2)(c2ccc(O)cc2)c2ccccc21` [phenol red, reference compound], in data set [8] (positive control 50 μM, read-out: Aβ fibrilization inhibition (ThT)), the inhibition at 50 µM worked out at 60.3 ± 4.29%.
On to `O=c1c(O)c(-c2ccc(O)c(O)c2)oc2cc(O)cc(O)c12` [quercetin], for which the “ABTS radical scavenging activity” value in data set [14] came out at 97.55 ± 0.05%.
